Laboratory results: patent publication US20030194409A1, “Conjugate heat shock protein-binding peptides” (priority 2002, published 2003)
Like-named read-outs stand apart in the source and are kept apart here.

How the values were obtained:
[1] = target: T1, gp96 in the presence of herbimycin A (Mus musculus, UniProt P08113); test: Affinity panning of phage display heptapeptide library on gp96 in the presence of herbimycin A; type: binding; conditions: for % actual (amino acid frequency in sequenced gp96-binding phage-expressed heptapeptides): TWEEN 20
T1 construct: The mouse cDNA encoding mature gp96 (i.e., wherein the endoplasmic reticulum signal peptide has been removed) was incorporated into the pET 11 a expression vector; made in house; host or cells: Escherichia coli BL21 (pET11gp96)
T1 sequence (P08113 22-802): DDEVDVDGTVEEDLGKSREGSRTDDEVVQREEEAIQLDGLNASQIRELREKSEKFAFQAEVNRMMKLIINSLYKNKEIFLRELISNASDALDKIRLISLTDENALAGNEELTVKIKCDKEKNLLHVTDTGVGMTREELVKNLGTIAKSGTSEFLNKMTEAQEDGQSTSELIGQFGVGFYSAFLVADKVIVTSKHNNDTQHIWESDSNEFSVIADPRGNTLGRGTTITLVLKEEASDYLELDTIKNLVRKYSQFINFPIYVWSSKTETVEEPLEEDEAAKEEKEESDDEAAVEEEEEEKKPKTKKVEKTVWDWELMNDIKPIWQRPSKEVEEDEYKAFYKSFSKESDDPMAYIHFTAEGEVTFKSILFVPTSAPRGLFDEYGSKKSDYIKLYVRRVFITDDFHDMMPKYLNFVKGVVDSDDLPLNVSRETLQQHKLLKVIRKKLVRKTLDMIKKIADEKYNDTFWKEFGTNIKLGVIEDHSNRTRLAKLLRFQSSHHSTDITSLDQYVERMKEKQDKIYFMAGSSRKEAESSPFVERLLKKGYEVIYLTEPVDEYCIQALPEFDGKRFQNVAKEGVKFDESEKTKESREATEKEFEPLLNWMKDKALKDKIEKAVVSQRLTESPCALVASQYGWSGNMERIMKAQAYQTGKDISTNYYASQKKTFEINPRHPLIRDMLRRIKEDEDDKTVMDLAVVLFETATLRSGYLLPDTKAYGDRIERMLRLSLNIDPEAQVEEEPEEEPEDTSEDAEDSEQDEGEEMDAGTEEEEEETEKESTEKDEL
Description: Preparation of a gp96 expression vector. The mouse cDNA encoding mature gp96 (i.e., wherein the endoplasmic reticulum signal peptide has been removed) was incorporated into the pET 11 a expression vector (Novagen) as follows. Gp96 cDNA insert was prepared by polymerase chain reaction (PCR) of a pRc/CMV clone containing the cDNA using the following oligonucleotide primers: […]
Expression of gp96. pET11gp96 was transformed into BL21 Escherichia coli cells, and plated on LB plates containing ampicillin (50 μg/ml). One of the resulting colonies was used to inoculate a 20 ml overnight culture of 2×TY medium containing ampicillin (150 μg/ml). The following day, the resulting culture was spun down and the harvested bacteria were resuspended in 1 ml of fresh medium. Two one liter cultures were then each inoculated with 0.5 ml of the harvested cells and allowed to grow at 37° C. until the optical density, measured at 600 nm, was 0.5. Then, IPTG was added to a concentration of 1 mM and the cells were cultured for another 3 hours before being harvested by centrifugation. The resulting cell pellet was resuspended in 20 ml of 50 mM HEPES pH 7.5, 50 mM KCl, 5 mM MgAcetate, 20% sucrose and 1 mM PMSF. Cell extracts were prepared by pressure shearing in a French Press. The lysates were then spun at 100,000×g for 1.5 hours and the supernatant, which constituted crude gp96 extract, was collected.
Purification of gp96. The following steps were all performed at 4° C. A 12.5 cm×3.2 cm column of DE52 resin (Whatman) was equilibrated in a solution of 50 mM MOPS pH 7.4, 10 mM NaCl, 5 mM MgAcetate (hereafter, “Buffer A”). The crude gp96 extract was diluted 2-fold and immediately loaded onto the column at a flow rate of 2 ml/min. Elution from the column was achieved using a gradient of a solution of 50 mM MOPS pH 7.4, 1M NaCl, 5 mM MgAcetate (hereafter, “Buffer B”) from 0% to 100% Buffer B over 1000 ml. The elution profile was examined by subjecting fractions collected from the column to SDS-PAGE analysis. Fractions containing gp96 were pooled and diluted 2-fold with cold water, and were immediately run onto the next column (see below).
A 10 cm×1 cm column of hydroxyapatite (BioRad) was washed with 100 ml 0.5 M K2HPO4, 50 mM KCl pH 7.4 and then equilibrated with 10 mM K2HPO4, 50 mM KCl pH 7.4. The pooled diluted fractions from the DE52 column were loaded onto this column at a flow rate of 1 ml/min. The gp96 protein was eluted in a gradient of 10-500 mM K2HPO4 over 800 ml. Fractions containing gp96 were pooled and loaded onto the phenylsepharose column described below.
A 9 cm×3 cm column of phenylsepharose (Pharmacia) was equilibrated with 500 mM NaCl, 50 mM MOPS pH 7.4. The pooled fractions containing gp96 from the hydroxyapatite were loaded onto this column at 1 ml/min and the gp96 was eluted in a gradient of 500-0 mM NaCl over 800 ml. The gp96 containing fractions collected from the column were identified by SDS-PAGE, pooled, and concentrated.
The gp96 was then loaded onto a Hi Load 26/60 Superdex-200 column (Pharmacia) equilibrated with 100 mM NaCl, 5 mM MgAcetate, 50 mM MOPS pH 7.5, 3 ml fractions were collected, and the fractions containing the most pure gp96 (as identified by SDS PAGE using a 12 percent reducing gel) and pooled. To the pooled fractions, glycerol was added to 10% (v/v), and then the fractions were concentrated to 21 mg/ml on a Centricon-50 concentrator (Amicon), frozen using liquid nitrogen, and stored at −80° C.
Affinity panning. The Ph.D. Phage Display Library Kit (New England BioLabs, Beverly, Mass.), was used for affinity panning. For each panning experiment, a well of a 96-well polystyrene microtiter plate (each well having a 6 mm diameter) was filled with 150 μl of a solution of 200 μg/ml of gp96 in 0.1 M NaHCO3 pH 8.3. If herbimycin A was to be included in the experiment, 1 μl of 10 mg/ml herbimycin A (GIBCO) in DMSO was added to each well, corresponding to a 50-fold molar excess relative to gp96. […]

[2] = target: T1, gp96 in the presence of herbimycin A; conditions: expected frequency for comparison with % actual, cited from earlier work
[3] = Table XII, gp96 and herbimycin A, binding buffer without calcium: 20 mM HEPES pH 7.5, 100 mM KCl, 1 mM DTT, 1 mM MgAcetate, 42 phage-expressed peptides sequenced
[4] = Table XIV, gp96 in the presence of herbimycin A, binding buffer with ATP: 20 mM HEPES pH 7.5, 100 mM KCl, 1 mM CaCl2, 1 mM MgAcetate, 1 mM ATP
[5] = Table XVI, binding buffer with AMP-PNP instead of ATP: 20 mM HEPES pH 7.5, 100 mM KCl, 1 mM CaCl2, 1 mM MgAcetate, 1 mM AMP-PNP

Molecule	% actual (amino acid frequency in sequenced gp96-binding phage-expressed heptapeptides) [1, 3] [%]	% actual (amino acid frequency in sequenced gp96-binding phage-expressed heptapeptides) [1, 4] [%]	% actual (amino acid frequency in sequenced gp96-binding phage-expressed heptapeptides) [1, 5] [%]	binding of phage-expressed peptides to gp96 ([1]; 20 mM HEPES pH 7.5, 100 mM KCl, 25 mM CaCl2, 5 mM MgAcetate, TWEEN-20, herbimycin A present)	% expected (amino acid frequency) ([2]; Table XII) [%]	% expected (amino acid frequency) ([2]; Table XIV) [%]	% expected (amino acid frequency) ([2]; Table XVI) [%]
C[C@H](N)C(=O)O [Ala]	10.2	3.57	8.5		7.2	7.2	7.2
N=C(N)NCCC[C@H](N)C(=O)O [Arg]	2.72	5.35	5.7		3.9	3.9	3.9
NC(=O)C[C@H](N)C(=O)O [Asn]	3.06	5.3	5.7		4.1	4.1	4.1
N[C@@H](CC(=O)O)C(=O)O [Asp]	2.04	0	1.4		2.1	2.1	2.1
N[C@@H](CS)C(=O)O [Cys]	0	0	0		0.8	0.8	0.8
NC(=O)CC[C@H](N)C(=O)O [Gln]	2.0	1.78	5.7		6.4	6.4	6.4
N[C@@H](CCC(=O)O)C(=O)O [Glu]	2.0	0	0		1.2	1.2	1.2
NCC(=O)O [Gly]	3.74	1.78	1.4		3.7	3.7	3.7

The next lines start with results.

% actual (amino acid frequency in sequenced gp96-binding phage-expressed heptapeptides) [1, 3] [%]	% actual (amino acid frequency in sequenced gp96-binding phage-expressed heptapeptides) [1, 4] [%]	% actual (amino acid frequency in sequenced gp96-binding phage-expressed heptapeptides) [1, 5] [%]	binding of phage-expressed peptides to gp96 ([1]; 20 mM HEPES pH 7.5, 100 mM KCl, 25 mM CaCl2, 5 mM MgAcetate, TWEEN-20, herbimycin A present)	Molecule	% expected (amino acid frequency) ([2]; Table XII) [%]	% expected (amino acid frequency) ([2]; Table XIV) [%]	% expected (amino acid frequency) ([2]; Table XVI) [%]
5.44	10.7	12.8		N[C@@H](Cc1c[nH]cn1)C(=O)O [His]	4.3	4.3	4.3
12.92	10.7	5.7		CC(C)C[C@H](N)C(=O)O [Leu]	11.8	11.8	11.8
3.74	0	2.85		NCCCC[C@H](N)C(=O)O [Lys]	1.7	1.7	1.7
2.0	0	2.85		CSCC[C@H](N)C(=O)O [Met]	3.3	3.3	3.3
2.38	0	2.85		N[C@@H](Cc1ccccc1)C(=O)O [Phe]	2.9	2.9	2.9
10.88	14.2	12.8		O=C(O)[C@@H]1CCCN1 [Pro]	12	12	12
10.88	16.0	4.28		N[C@@H](CO)C(=O)O [Ser]	11.4	11.4	11.4
13.95	8.9	10		C[C@@H](O)[C@H](N)C(=O)O [Thr]	9.3	9.3	9.3
1.36	3.57	2.85		N[C@@H](Cc1c[nH]c2ccccc12)C(=O)O [Trp]	1	1	1
			appeared to be favored	Phe-His-Trp-Trp-Trp (FHWWW; printed: Phe-His-Trp-Trp-Trp)			
